From the supplement of paper PMC10307832

Columns and labels:
Assay in all cases: relative viability (nuclei count vs DMSO), 5 days (fraction); higher = more cells survive
DM3189 + Luminespib = compound: C1CN(CCN1)C2=CC=C(C=C2)C3=CN4C(=C(C=N4)C5=CC=NC6=CC=CC=C56)N=C3 [DM3189] + CCNC(=O)c1noc(-c2cc(C(C)C)c(O)cc2O)c1-c1ccc(CN2CCOCC2)cc1 [Luminespib] (partner 0.01 µM)
Procedure, shortened: (§1)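 Relative viability was taken as the ratio of nuclei in treated wells to nuclei in vehicle wells. Lung cancer cell lines in 1536-well plates received compounds by pin tool one day after seeding, either one drug alone or a fixed anchor-drug dose plus five library-drug doses (not always all listed) in √10 steps. Nuclei were counted on 4× images after 5 days of treatment, and values are medians of duplicate plates.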

DM3189 + Linsitinib = compound: C1CN(CCN1)C2=CC=C(C=C2)C3=CN4C(=C(C=N4)C5=CC=NC6=CC=CC=C56)N=C3 [DM3189] + C[C@]1(O)C[C@@H](c2nc(-c3ccc4ccc(-c5ccccc5)nc4c3)c3c(N)nccn32)C1 [Linsitinib] (partner 1 µM)
Procedure, shortened: as §1

DM3189 + Pictilisib = compound: C1CN(CCN1)C2=CC=C(C=C2)C3=CN4C(=C(C=N4)C5=CC=NC6=CC=CC=C56)N=C3 [DM3189] + CS(=O)(=O)N1CCN(Cc2cc3nc(-c4cccc5[nH]ncc45)nc(N4CCOCC4)c3s2)CC1 [Pictilisib] (partner 1 µM)
Procedure, shortened: as §1

DM3189 + Crizotinib = compound: C1CN(CCN1)C2=CC=C(C=C2)C3=CN4C(=C(C=N4)C5=CC=NC6=CC=CC=C56)N=C3 [DM3189] + C[C@@H](Oc1cc(-c2cnn(C3CCNCC3)c2)cnc1N)c1c(Cl)ccc(F)c1Cl [Crizotinib] (partner 1 µM)
Procedure, shortened: as §1

DM3189 + Phenformin = compound: C1CN(CCN1)C2=CC=C(C=C2)C3=CN4C(=C(C=N4)C5=CC=NC6=CC=CC=C56)N=C3 [DM3189] + N=C(N)NC(=N)NCCc1ccccc1 [Phenformin] (partner 250 µM)
Procedure, shortened: as §1

Cell Line	relative viability (DM3189 + Luminespib; first compound 0.08 µM)	relative viability (DM3189 + Luminespib; first compound 0.253 µM)	relative viability (DM3189 + Luminespib; first compound 0.8 µM)	relative viability (DM3189 + Luminespib; first compound 2.53 µM)	relative viability (DM3189 + Linsitinib; first compound 0.08 µM)	relative viability (DM3189 + Linsitinib; first compound 0.253 µM)	relative viability (DM3189 + Linsitinib; first compound 0.8 µM)	relative viability (DM3189 + Linsitinib; first compound 2.53 µM)	relative viability (DM3189 + Pictilisib; first compound 0.08 µM)	relative viability (DM3189 + Pictilisib; first compound 0.253 µM)	relative viability (DM3189 + Pictilisib; first compound 0.8 µM)	relative viability (DM3189 + Pictilisib; first compound 2.53 µM)	relative viability (DM3189 + Crizotinib; first compound 0.08 µM)	relative viability (DM3189 + Crizotinib; first compound 0.253 µM)	relative viability (DM3189 + Crizotinib; first compound 0.8 µM)	relative viability (DM3189 + Crizotinib; first compound 2.53 µM)	relative viability (DM3189 + Phenformin; first compound 0.08 µM)	relative viability (DM3189 + Phenformin; first compound 0.253 µM)	relative viability (DM3189 + Phenformin; first compound 0.8 µM)	relative viability (DM3189 + Phenformin; first compound 2.53 µM)
NCI-H2023	0.811	0.863	1.09	0.663	0.683	0.694	0.496	0.667	0.26	0.24	0.201	0.235	0.68	0.729	0.631	0.502	0.368	0.363	0.428	0.347
HCC-78	–	–	–	–	0.515	0.465	–	0.474	0.206	0.188	–	0.224	0.314	0.328	–	0.317	0.713	0.754	0.724	0.605
NCI-H2170	0.939	0.836	0.762	0.764	–	–	–	–	0.308	0.301	0.288	0.291	1.31	1.27	1.24	1.09	0.435	0.367	0.361	0.397
NCI-H1793	0.184	0.196	0.171	0.174	1.09	0.997	0.937	1.21	0.311	0.306	0.281	0.31	–	–	–	–	0.397	0.412	0.415	0.344
HCC-366	–	–	–	–	0.641	0.538	0.55	0.649	0.209	0.134	0.116	0.137	0.475	0.574	0.372	0.771	0.531	0.611	–	0.605
NCI-H1651	0.811	0.836	0.779	1.01	1.09	1.02	1.21	0.991	0.713	0.578	0.467	0.468	0.857	0.886	0.878	0.957	0.45	0.339	0.335	0.272
LC-2-ad	0.827	0.926	0.891	0.979	0.858	0.847	0.819	0.855	0.588	0.563	0.397	0.473	0.419	0.458	0.382	0.378	0.689	0.531	0.533	0.584
HCC-827	0.589	0.515	0.608	0.583	0.982	0.863	0.888	0.938	1.19	1.06	1.02	1.15	0.896	0.89	0.866	0.896	0.443	0.444	0.441	0.431
SW 1573	0.261	0.232	0.192	0.33	0.887	0.771	0.626	0.738	0.541	0.491	0.466	0.399	0.87	0.801	0.717	0.767	0.318	0.349	0.296	0.285
ABC-1	0.516	0.489	0.531	0.278	0.806	0.894	0.752	0.783	0.838	0.636	0.757	0.631	1.07	0.991	0.991	0.668	0.256	0.233	0.216	0.176
NCI-H1703	–	–	–	–	0.597	0.635	0.575	0.693	0.28	0.205	0.257	0.257	0.763	0.747	0.524	0.548	–	–	–	–
COR-L 105	0.812	0.83	0.705	0.778	0.905	1.08	0.804	1.25	0.52	0.398	0.361	0.275	0.864	0.685	0.603	0.538	0.534	0.53	0.433	0.297
LOU-NH91	0.361	0.329	0.316	0.377	0.901	0.956	0.802	0.923	0.534	0.517	0.477	0.519	0.754	0.709	0.718	0.727	0.886	0.689	0.706	0.747
NCI-H727	0.402	0.377	–	0.31	0.255	0.326	–	0.259	0.593	0.347	–	0.227	0.889	0.821	–	0.737	0.628	0.517	–	0.533
LU99A	0.229	0.19	–	0.23	0.49	0.49	–	0.445	0.32	0.263	–	0.316	0.573	0.527	–	0.509	0.964	0.735	–	0.8
NCI-H1650	0.183	0.183	0.188	0.197	–	–	–	–	0.773	0.582	0.526	0.477	0.896	0.851	1.15	0.717	0.5	0.347	0.387	0.354
NCI-H2342	0.916	0.66	0.845	0.702	–	–	–	–	–	–	–	–	–	–	–	–	0.625	0.594	0.595	0.498
SW 900	0.174	0.166	0.156	0.196	–	–	–	–	–	–	–	–	–	–	–	–	0.599	0.465	0.535	0.568
NCI-H522	1.31	0.984	1.27	1.16	–	–	–	–	–	–	–	–	–	–	–	–	0.675	0.591	0.592	0.617
IA-LM	–	–	–	–	0.699	0.682	0.51	0.901	0.355	0.353	0.426	0.566	0.857	–	1.01	1.11	–	–	–	–
